The record followed here is patent publication US20230382924A1, “MODULATORS OF CYSTIC FIBROSIS TRANSMEMBRANE CONDUCTANCE REGULATOR” (VERTEX PHARMACEUTICALS INCORPORATED, priority 2020, published 2023).

Broadly, the EC50 is the concentration giving half of the maximal effect.

Structures are written as SMILES. Read-outs that look alike come from different tables or passages of the source.

Data set [1] has as its target T1, CFTR (Homo sapiens, UniProt P13569, DEL508-508).
T1 construct: endogenous in cells; host or cells: primary human bronchial epithelial cells from CF subjects (F508del/MF)
The experiment in a line: HBE assay: Ussing chamber assay of CFTR-mediated short-circuit currents in F508del/MF-HBE cells. It is filed as cell-based. The settings on record: 20% human serum; for HBE Activity at 10 μM (%): single fixed concentration of 10 μM with 1 μM Ivacaftor; for HBE Activity at 10 μM (%) / Emax: 18-24 hours, compared to known Vertex corrector with 18 μM Tezacaftor and 1 μM Ivacaftor; for EC50: range of concentrations in combination with 1 μM Ivacaftor, 18-24 hours at 37° C.; for Emax: with 1 μM Ivacaftor, read-out: HBE Max Activity (%). As to the method: 1. Ussing Chamber Assay of CFTR-Mediated Short-Circuit Currents
Ussing chamber experiments were performed using human bronchial epithelial (HBE) cells derived from CF subjects heterozygous for F508del and a minimal function CFTR mutation (F508del/MF-HBE) and cultured as previously described (Neuberger T, Burton B, Clark H, Van Goor F Methods Mol Biol 2011:741:39-54). After four days the apical media was removed, and the cells were grown at an air liquid interface for >14 days prior to use.
To isolate the CFTR-mediated short-circuit (Isc) current, F508del/MF-HBE grown on Costar® Snapwell™ cell culture inserts were mounted in an Ussing chamber and the transepithelial Isc was measured under voltage-clamp recording conditions (Vhold=0 mV) at 37° C. The basolateral solution contained (in mM) 145 NaCl, 0.83 K2HPO4, 3.3 KH2P04, 1.2 MgCl2, 1.2 CaCl2), 10 Glucose, 10 HEPES (pH adjusted to 7.4 with NaOH) and the apical solution contained (in mM) 145 NaGluconate, 1.2 MgCl2, 1.2 CaCl2), 10 glucose, 10 HEPES (pH adjusted to 7.4 with NaOH) and 30 μM amiloride to block the epithelial sodium channel. Forskolin (20 μM) was added to the apical surface to activate CFTR, followed by apical addition of a CFTR inhibitor cocktail consisting of BPO, GlyH-101, and CFTR inhibitor 172 (each at 20 μM final assay concentration) to specifically isolate CFTR currents. The CFTR-mediated Isc (ρA/cm^2) for each condition was determined from the peak forskolin response to the steady-state current following inhibition.
2. Identification of Corrector Compounds
The activity of the CFTR corrector compounds on the CFTR-mediated Isc was determined in Ussing chamber studies as described above. The F508del/MF-HBE cell cultures were either incubated with the corrector compounds at a range of concentrations in combination with 1 μM Ivacaftor or were incubated with the corrector compounds at a single fixed concentration of 10 μM in combination with 1 μM Ivacaftor for 18-24 hours at 37° C. and in the presence of 20% human serum. The concentration of corrector compounds with 1 μM Ivacaftor during the 18-24 hours incubations was kept constant throughout the Ussing chamber measurement of the CFTR-mediated Isc to ensure compounds were present throughout the entire experiment.

The conditions of data set [2]: amide bond, 13-membered ring, DMF, 25.0 °C.
The target of data set [3] is T2, CFTR (Homo sapiens, UniProt P13569). In words: Membrane Potential Dye, Enteroid Assay B. It is filed as cell-based. The settings on record: Table 9. In a few lines: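 Enteroid cells loaded 25 min at room temperature with 20 μM methyl oxonol plus 30 μM CaCCinh-A01 and 30 μM Chicago Sky Blue, then switched to chloride-free gluconate buffer. Chloride transport was started by chloride-free stimulation solution, with fluorescence read for 15 min.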

Data set [4] deals with T2, CFTR. In words: Membrane Potential Dye, Enteroid Assay A. It counts as cell-based. The settings on record: for EC50: read-out: Ent. A EC50. In outline: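 Enteroid cells were loaded with methyl oxonol membrane potential dye (plus CaCCinh-A01 and Chicago Sky Blue) for 25 min at room temperature. Chloride transport was started by switching to chloride-free gluconate stimulation solution, with fluorescence read for 15 min. Activity was expressed as % of a triple-combination CFTR modulator control (3 μM, 3 μM, 300 nM acute).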

T2 sequence (P13569 with tags, fused parts or gaps DEL508-508): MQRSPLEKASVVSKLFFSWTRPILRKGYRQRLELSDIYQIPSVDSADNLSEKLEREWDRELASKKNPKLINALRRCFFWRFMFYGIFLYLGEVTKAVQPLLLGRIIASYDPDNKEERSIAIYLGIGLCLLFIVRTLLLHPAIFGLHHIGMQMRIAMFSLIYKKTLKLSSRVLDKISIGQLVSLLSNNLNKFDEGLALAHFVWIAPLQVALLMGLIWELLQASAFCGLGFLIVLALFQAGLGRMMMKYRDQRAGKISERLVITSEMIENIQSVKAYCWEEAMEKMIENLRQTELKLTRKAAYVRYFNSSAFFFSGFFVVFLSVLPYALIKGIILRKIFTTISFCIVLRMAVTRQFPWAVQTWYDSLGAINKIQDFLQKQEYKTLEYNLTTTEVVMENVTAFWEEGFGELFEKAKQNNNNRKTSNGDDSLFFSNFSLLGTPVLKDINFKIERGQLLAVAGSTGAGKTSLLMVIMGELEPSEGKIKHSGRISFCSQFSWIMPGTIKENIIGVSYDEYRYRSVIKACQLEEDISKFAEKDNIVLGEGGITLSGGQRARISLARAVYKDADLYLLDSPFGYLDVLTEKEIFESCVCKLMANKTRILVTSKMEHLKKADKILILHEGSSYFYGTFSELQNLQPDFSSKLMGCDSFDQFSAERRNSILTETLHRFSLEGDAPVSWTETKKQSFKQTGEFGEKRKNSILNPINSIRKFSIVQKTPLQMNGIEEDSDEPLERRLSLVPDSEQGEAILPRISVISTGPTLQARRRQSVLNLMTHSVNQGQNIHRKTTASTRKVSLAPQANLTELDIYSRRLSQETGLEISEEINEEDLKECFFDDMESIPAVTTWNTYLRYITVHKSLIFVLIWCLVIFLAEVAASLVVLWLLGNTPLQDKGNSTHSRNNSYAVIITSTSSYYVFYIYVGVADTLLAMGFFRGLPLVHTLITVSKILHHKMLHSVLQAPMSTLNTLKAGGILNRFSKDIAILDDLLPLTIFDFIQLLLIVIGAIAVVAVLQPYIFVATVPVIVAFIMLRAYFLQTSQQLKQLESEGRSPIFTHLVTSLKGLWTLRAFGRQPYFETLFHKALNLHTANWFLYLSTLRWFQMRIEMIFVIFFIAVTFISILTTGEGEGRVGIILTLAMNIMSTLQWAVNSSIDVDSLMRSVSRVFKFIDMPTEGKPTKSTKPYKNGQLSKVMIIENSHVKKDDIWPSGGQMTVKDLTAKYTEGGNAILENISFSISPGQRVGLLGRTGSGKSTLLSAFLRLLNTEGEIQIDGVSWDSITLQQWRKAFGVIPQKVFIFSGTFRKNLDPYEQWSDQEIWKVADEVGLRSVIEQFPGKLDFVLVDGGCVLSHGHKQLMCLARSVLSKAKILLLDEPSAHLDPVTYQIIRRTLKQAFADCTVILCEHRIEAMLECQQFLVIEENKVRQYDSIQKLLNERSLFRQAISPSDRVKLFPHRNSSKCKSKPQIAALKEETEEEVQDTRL
T1 sequence (P13569 with tags, fused parts or gaps DEL508-508): as above

Turning to `Cc1cccc(C)c1-c1cc2nc(n1)NS(=O)(=O)c1cccc(c1)C(=O)N[C@H](CC1CC3(CCC3)C1)CO2` [Compound 49, (11R)-6-(2,6-Dimethylphenyl)-2,2-dioxo-11-(spiro[3.3]heptan-2-ylmethyl)-9-oxa-2λ^6-thia-3,5,12,19-tetrazatricyclo[12.3.1.14,8]nonadeca-1(18),4(19),5,7,14,16-hexaen-13-one], the “HBE Activity at 10 μM (%)” value on CFTR [1] was “+++ (+++ is >60%)”. For the same compound, in data set [2] (from Cc1cccc(C)c1-c1cc(OC[C@H](N)CC2CC3(CCC3)C2)nc(NS(=O)(=O)c2cccc(C(=O)O)c2)n1, CDMT/NMM, 32.4 mM, 1.5 h), the ring closure, yield after HPLC was found to be 49%.
For `C=CCCCCCC[C@@H]1COc2cc(-c3ccccc3C=C)nc(n2)NS(=O)(=O)c2cccc(c2)C(=O)N1` [Compound 35, (11R)-11-Oct-7-enyl-2,2-dioxo-6-(2-vinylphenyl)-9-oxa-2λ^6-thia-3,5,12,19-tetrazatricyclo[12.3.1.14,8]nonadeca-1(18),4,6,8(19),14,16-hexaen-13-one], the “Ent. B Max Activity” value on CFTR [3] is given as “++ (++ is 30-60%)”. Further, at CFTR [3] (read-out: Ent. B EC50), the EC50 was below 1 µM. Besides, the ring closure, isolated yield (from C=CCCCCCC[C@@H](N)COc1cc(-c2ccccc2C=C)nc(NS(=O)(=O)c2cccc(C(=O)O)c2)n1, amide bond, 13-membered ring, HATU/NaOtBu, DMF/THF, 19.4 mM, 0.0 °C, 0.67 h, 2 steps) was found to be 35%.
In turn, `CC(C)C[C@@H]1COc2cc(Cl)nc(n2)NS(=O)(=O)c2cccc(c2)C(=O)N1` yielded a ring closure, isolated yield (from CC(C)C[C@@H](N)COc1cc(Cl)nc(NS(=O)(=O)c2cccc(C(=O)O)c2)n1, amide bond, 13-membered ring, HATU/Et3N, DMF, 29.1 mM, -5.0 °C, 0.17 h) of 30%.
Consider `Cc1cccc(C)c1-c1cc2nc(n1)NS(=O)(=O)c1cccc(c1)C(=O)NC(C(CC(C)C)c1ccc(C(C)(C)C)cc1)CO2` (stereo not drawn) [Compound 208], for which the “HBE Activity at 10 μM (%)” value on CFTR [1] is “+++ (+++ is >60%)”.
Still for that read-out and setting: the same measure for `Cc1cccc(C)c1-c1cc2nc(n1)NS(=O)(=O)c1cccc(c1)C(=O)N[C@@H](CC(C)(C)C)CO2` [Compound 121]: “+ (+ is <30%)”.
For `Cc1cccc(C)c1-c1cc2nc(n1)NS(=O)(=O)c1cccc(c1)C(=O)NCC1(CCN(C(=O)OC(C)(C)C)CC1)CO2` [Compound 81, tert-Butyl 6-(2,6-dimethylphenyl)-2,2,14-trioxo-spiro[9-oxa-2λ^6-thia-3,5,13,20-tetrazatricyclo[13.3.1.14,8]icosa-1(19),4(20),5,7,15,17-hexaene-11,4′-piperidine]-1′-carboxylate], where the note is “from Cc1cccc(C)c1-c1cc(Cl)nc(NS(=O)(=O)c2cccc(C(=O)NCC3(CO)CCN(C(=O)OC(C)(C)C)CC3)c2)n1, snar bond, 14-membered ring, NaH, THF, 5.0 mM, 25.0 °C, 3.0 h”, the ring closure, isolated yield is 66%. In addition, the EC50 at CFTR [4] (Enteroid Assay A) lay in the range of 1 to 3 µM.
`Cc1cccc(C)c1-c1cc2nc(n1)NS(=O)(=O)c1cccc(c1)C(=O)NCC(c1ccc(C3(C(F)(F)F)CC3)cc1)O2` (stereo not drawn) registered a ring closure, isolated yield (from Cc1cccc(C)c1-c1cc(OC(CN)c2ccc(C3(C(F)(F)F)CC3)cc2)nc(NS(=O)(=O)c2cccc(C(=O)O)c2)n1, amide bond, 13-membered ring, HATU/NaOtBu, THF/DMF, 67.1 mM, 25.0 °C, 0.75 h, 2 steps) of 26%.
As for `Cc1cccc(C)c1-c1cc2nc(n1)NS(=O)(=O)c1cccc(c1)C(=O)NC(C1CC3(CCC3)C1)CO2` (stereo not drawn) [Compound 50, 6-(2,6-Dimethylphenyl)-2,2-dioxo-11-spiro[3.3]heptan-2-yl-9-oxa-2λ^6-thia-3,5,12,19-tetrazatricyclo[12.3.1.14,8]nonadeca-1(18),4(19),5,7,14,16-hexaen-13-one], at CFTR [1], the EC50 is below 1 µM and the Emax was above 60%. The compound further registered a ring closure, yield after HPLC in data set [2] (from Cc1cccc(C)c1-c1cc(OCC(N)C2CC3(CCC3)C2)nc(NS(=O)(=O)c2cccc(C(=O)O)c2)n1, CDMT/NMM, 46.6 mM, 1.5 h) of 25%.
As to `Cc1cccc(C)c1-c1cc2nc(n1)NS(=O)(=O)c1cccc(c1)C(=O)NC(C(CC(C)C)c1ccc(C(C)(C)C)cc1)CO2` (stereo not drawn) [Compound 207], the “HBE Activity at 10 μM (%)” value at CFTR [1] is on record as “+ (+ is <30%)”.
Take `Cc1cccc(C)c1-c1cc2nc(n1)NS(=O)(=O)c1cccc(c1)C(=O)NC(C(CC(C)C)c1cccc(C(C)(C)C)c1)CO2` (stereo not drawn) [Compound 209]: the EC50 at CFTR [1] is below 1 µM.
`Cc1cccc(C)c1-c1cc2nc(n1)NS(=O)(=O)c1cccc(c1)C(=O)N[C@@H]1CN(C(=O)OC(C)(C)C)CC[C@H]1O2` [Compound 59, tert-Butyl (3R,8R)-20-(2,6-dimethylphenyl)-10,16,16-trioxo-2-oxa-16λ^6-thia-6,9,17,19,22-pentaazatetracyclo[16.3.1.111,15.03,8]tricosa-1(21),11(23),12,14,18(22),19-hexaene-6-carboxylate]: the ring closure, isolated yield (from Cc1cccc(C)c1-c1cc(O[C@@H]2CCN(C(=O)OC(C)(C)C)C[C@H]2N)nc(NS(=O)(=O)c2cccc(C(=O)O)c2)n1, amide bond, 13-membered ring, COMU/DIEA, DMF, 19.4 mM, 19.0 h) was found to be 34%. Besides, on CFTR [4] (Table 9), the “Ent. A Max Activity” value is recorded as “+++ (+++ is >60%)” and the EC50 was below 1 µM.
`O=S1(=O)Nc2nc(Cl)cc(n2)-c2ccccc2CCCNc2cccc1c2` gave a ring closure, isolated yield (from CC1(C)OB(c2ccccc2CCCNc2cccc(S(=O)(=O)Nc3nc(Cl)cc(Cl)n3)c2)OC1(C)C, cc_pd bond, 14-membered ring, Pd(PPh3)4/K2CO3, 1,4-dioxane/water, 11.2 mM, 90.0 °C, 5.0 h) of 19%.
For `Cc1cccc(CC2CCCCC2)c1-c1cc2nc(n1)NS(=O)(=O)c1cccc(c1)C(=O)N[C@H](CC(C)(C)C)CO2` [Compound 299], at CFTR [1], the EC50 was below 1 µM and the Emax was above 60%.
Turning to `Cc1cccc(C)c1-c1cc2nc(n1)NS(=O)(=O)c1cccc(c1)C(=O)NC(C(CC(C)C)c1ccc(C(C)(C)C)cc1)CO2` (stereo not drawn) [Compound 210], at CFTR [1], the EC50 is below 1 µM and the Emax lay within 30 to 60%.
The compound `COCN1c2nc3cc(n2)-c2ccccc2/C=C/CCCCCC[C@H](CO3)NC(=O)c2cccc(c2)S1(=O)=O` yielded a ring closure, isolated yield (from C=CCCCCCC[C@@H]1COc2cc(-c3ccccc3C=C)nc(n2)N(COC)S(=O)(=O)c2cccc(c2)C(=O)N1, rcm bond, 16-membered ring, Grubbs II, toluene, 16.4 mM, 100.0 °C, 1.5 h) of 80%.
Take `Cc1cccc(C)c1-c1cc2nc(n1)NS(=O)(=O)c1cccc(c1)C(=O)NC(C(CC(C)C)c1cccc(C(C)(C)C)c1)CO2` (stereo not drawn) [Compound 211]: at CFTR [1], the EC50 was below 1 µM and the Emax was above 60%.
Take `Cc1ccc2ccccc2c1-c1cc2nc(n1)NS(=O)(=O)c1cccc(c1)C(=O)N[C@H](CC(C)(C)C)CO2` [Compound 52, (11R)-11-(2,2-Dimethylpropyl)-6-(2-methyl-1-naphthyl)-2,2-dioxo-9-oxa-2λ^6-thia-3,5,12,19-tetrazatricyclo[12.3.1.14,8]nonadeca-1(18),4(19),5,7,14,16-hexaen-13-one]: on CFTR [1], the EC50 was below 1 µM and the Emax was above 60%. In data set [2] (from Cc1ccc2ccccc2c1-c1cc(OC[C@H](N)CC(C)(C)C)nc(NS(=O)(=O)c2cccc(C(=O)O)c2)n1, HATU/TEA, 44.8 mM, 2.0 h), this compound had a ring closure, yield after HPLC of 25%.
For `Cc1ccc(C)c(-c2cc3nc(n2)NS(=O)(=O)c2cccc(c2)C(=O)N[C@H](CC(C)(C)C)CO3)c1C` [Compound 51, (11R)-11-(2,2-Dimethylpropyl)-6-(2,3,6-trimethylphenyl)-9-oxa-2λ^6-thia-3,5,12,19-tetraazatricyclo[12.3.1.14,8]nonadeca-1(18),4,6,8(19),14,16-hexaene-2,2,13-trione], on CFTR [1], the EC50 was below 1 µM and the Emax is above 60%. The same compound had a ring closure, yield after HPLC in data set [2] (from Cc1ccc(C)c(-c2cc(OC[C@H](N)CC(C)(C)C)nc(NS(=O)(=O)c3cccc(C(=O)O)c3)n2)c1C, CDMT/NMM, 23.7 mM, 16.0 h) of 31%.
